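Protocol summary: plate cells (96-well), add compound at 5 concentrations, incubate 48 h, interpolate endpoints linearly. Here, GI50 denotes the concentration required for 50% inhibition of growth.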 Active and inactive are the calls of the source. Cut-off read from the data, not from the text of the source: active = GI50 up to about 1.1 µM and inactive = higher.
Key:
Assay in all cases: NCI-60 cell line screen, 48 h
XF498 = system: XF498
M19-MEL = system: M19-MEL
KM-20L2 = system: KM-20L2
DMS-114 = system: DMS-114
HOP-18 = system: HOP-18
LXFL 529 = system: LXFL 529
DLD-1 = system: DLD-1
RXF 631 = system: RXF 631
DMS-273 = system: DMS-273

SMILES: COc1ccc(-c2cc(O)c3ccc(F)cc3n2)cc1
- GI50 (XF498): > 100 µM (inactive)
- GI50 (M19-MEL): > 100 µM (inactive)
- GI50 (KM-20L2): > 100 µM (inactive)
- GI50 (DMS-114): > 100 µM (inactive)
- GI50 (HOP-18): > 100 µM (inactive)
- GI50 (LXFL 529): > 100 µM (inactive)
- GI50 (DLD-1): > 100 µM (inactive)
- GI50 (RXF 631): > 100 µM (inactive)

SMILES: CCCCCC(O)(CCCCC)CCCCCCCCC1=C(O)C(=O)c2ccc(=O)[nH]c2C1=O
- GI50 (XF498): 3.6 µM (inactive)
- GI50 (M19-MEL): 3.88 µM (inactive)
- GI50 (KM-20L2): 13.1 µM (inactive)
- GI50 (DMS-114): 4.37 µM (inactive)
- GI50 (DMS-273): 3.59 µM (inactive)
- GI50 (LXFL 529): 3.94 µM (inactive)
- GI50 (DLD-1): 5.37 µM (inactive)
- GI50 (RXF 631): 10.3 µM (inactive)

SMILES: Cc1cc(NCCCCCCCCNc2cc(C)nc3cc(N(C)C)ccc23)c2ccc(N(C)C)cc2n1
- GI50 (XF498): 1.98 µM (inactive)
- GI50 (M19-MEL): 2.78 µM (inactive)
- GI50 (KM-20L2): 4.29 µM (inactive)
- GI50 (DMS-114): 1.39 µM (inactive)
- GI50 (DMS-273): 2.74 µM (inactive)
- GI50 (LXFL 529): 1.69 µM (inactive)

SMILES: CCCCCCCCCCCCCCCCCCCCCC(=O)Nc1ccn(C2OC(CO)C(O)C2O)c(=O)n1 (stereo unspecified)
- GI50 (XF498): > 100 µM (inactive)
- GI50 (M19-MEL): 8.17 µM (inactive)
- GI50 (KM-20L2): > 100 µM (inactive)
- GI50 (DMS-114): 1.04 µM (active)
- GI50 (DMS-273): 35.6 µM (inactive)
- GI50 (HOP-18): > 100 µM (inactive)
- GI50 (LXFL 529): > 100 µM (inactive)
- GI50 (DLD-1): > 100 µM (inactive)

SMILES: NC(=S)N1N=C2c3ccccc3CCC[C@H]2[C@@H]1c1ccccc1
- GI50 (XF498): 4.55 µM (inactive)
- GI50 (M19-MEL): 2.81 µM (inactive)
- GI50 (KM-20L2): 2.01 µM (inactive)
- GI50 (DMS-114): 3.98 µM (inactive)
- GI50 (DMS-273): 0.721 µM (active)
- GI50 (LXFL 529): 3.89 µM (inactive)
- GI50 (DLD-1): 3.42 µM (inactive)

SMILES: O=C(Cc1nc2c3c(ccc2nc1O)C(=O)c1ccccc1C3=O)C(=O)Nc1ccccc1[N+](=O)[O-]
- GI50 (XF498): 12.6 µM (inactive)
- GI50 (M19-MEL): 22.2 µM (inactive)
- GI50 (KM-20L2): 19.6 µM (inactive)
- GI50 (LXFL 529): 4.24 µM (inactive)

SMILES: NNC(=O)C(=O)N/N=C1\CCC(=O)CC1C(=O)CCC(=O)Nc1ccc(Cl)cc1 (stereo unspecified)
- GI50 (M19-MEL): > 100 µM (inactive)
- GI50 (KM-20L2): > 100 µM (inactive)
- GI50 (DMS-273): > 100 µM (inactive)
- GI50 (HOP-18): 95.5 µM (inactive)
- GI50 (LXFL 529): > 100 µM (inactive)
- GI50 (DLD-1): > 100 µM (inactive)

SMILES: Clc1cccc2c1OCC1C(c3ccccc3)=NN(c3ccccc3)C21 (stereo unspecified)
- GI50 (XF498): > 100 µM (inactive)
- GI50 (M19-MEL): > 100 µM (inactive)
- GI50 (KM-20L2): > 100 µM (inactive)
- GI50 (DMS-114): 47.6 µM (inactive)
- GI50 (DMS-273): 45.8 µM (inactive)
- GI50 (HOP-18): 24 µM (inactive)
- GI50 (LXFL 529): 67.1 µM (inactive)
- GI50 (DLD-1): > 100 µM (inactive)
- GI50 (RXF 631): > 100 µM (inactive)

SMILES: FC(F)(F)c1cccc(C2SCc3nc4ccccc4n32)c1 (stereo unspecified)
- GI50 (M19-MEL): > 100 µM (inactive)
- GI50 (DMS-114): 18.5 µM (inactive)
- GI50 (DMS-273): 41.9 µM (inactive)
- GI50 (LXFL 529): 27.8 µM (inactive)
- GI50 (DLD-1): 54.2 µM (inactive)

SMILES: O=C(c1ccncc1)n1nc(-c2ccccc2)c(/N=N/c2ccccc2[N+](=O)[O-])c1-c1ccccc1
- GI50 (XF498): 33.5 µM (inactive)
- GI50 (M19-MEL): > 100 µM (inactive)
- GI50 (DMS-114): 21 µM (inactive)
- GI50 (DMS-273): > 100 µM (inactive)
- GI50 (LXFL 529): 74.6 µM (inactive)
- GI50 (DLD-1): 49.9 µM (inactive)
- GI50 (RXF 631): 38.5 µM (inactive)

SMILES: C/C(CC(=O)Nc1cc(C)ccc1C)=N\NC(=O)c1ccncc1
- GI50 (M19-MEL): > 100 µM (inactive)
- GI50 (KM-20L2): > 100 µM (inactive)
- GI50 (LXFL 529): > 100 µM (inactive)
- GI50 (DLD-1): > 100 µM (inactive)
- GI50 (RXF 631): > 100 µM (inactive)

SMILES: S=C(Nc1ccccc1)Nc1[nH]c(=S)sc1-c1nc2ccccc2[nH]1
- GI50 (M19-MEL): > 100 µM (inactive)
- GI50 (DMS-273): 37.8 µM (inactive)
- GI50 (HOP-18): > 100 µM (inactive)
- GI50 (LXFL 529): 29.6 µM (inactive)
- GI50 (DLD-1): 76.9 µM (inactive)
- GI50 (RXF 631): 65.6 µM (inactive)

SMILES: Cc1ccc(NC(=O)C(=O)CC(=O)C2CCOC2=O)c(C)c1 (stereo unspecified)
- GI50 (XF498): > 100 µM (inactive)
- GI50 (KM-20L2): > 100 µM (inactive)
- GI50 (DMS-114): > 100 µM (inactive)
- GI50 (DMS-273): > 100 µM (inactive)
- GI50 (HOP-18): > 100 µM (inactive)
- GI50 (LXFL 529): > 100 µM (inactive)
- GI50 (DLD-1): > 100 µM (inactive)
- GI50 (RXF 631): > 100 µM (inactive)

SMILES: COc1cc(C(O)C(=O)c2cnc3cc([N+](=O)[O-])ccc3n2)ccc1O (stereo unspecified)
- GI50 (XF498): > 100 µM (inactive)
- GI50 (M19-MEL): > 100 µM (inactive)
- GI50 (KM-20L2): 85.5 µM (inactive)
- GI50 (DMS-114): 49.9 µM (inactive)
- GI50 (DMS-273): > 100 µM (inactive)
- GI50 (LXFL 529): 74.1 µM (inactive)
- GI50 (DLD-1): > 100 µM (inactive)
- GI50 (RXF 631): > 100 µM (inactive)

SMILES: COC1=C(C)C(=O)C2C(C1=O)C(c1ccc(OC)c(OC)c1)[C@H]2C (stereo partly specified)
- GI50 (XF498): > 100 µM (inactive)
- GI50 (M19-MEL): > 100 µM (inactive)
- GI50 (DMS-273): > 100 µM (inactive)
- GI50 (LXFL 529): > 100 µM (inactive)
- GI50 (DLD-1): > 100 µM (inactive)
- GI50 (RXF 631): > 100 µM (inactive)

SMILES: C=C1C2CC(OC(C)=O)C3(C)C(c4ccoc4)OC(=O)[C@@H](O)[C@]13OC1C[C@H](OC(C)=O)C(C)(C)[C@H](C(O)C(=O)OC)[C@]12C (stereo partly specified)
- GI50 (M19-MEL): > 100 µM (inactive)
- GI50 (KM-20L2): > 100 µM (inactive)
- GI50 (DMS-114): > 100 µM (inactive)
- GI50 (DMS-273): > 100 µM (inactive)
- GI50 (HOP-18): > 100 µM (inactive)
- GI50 (LXFL 529): > 100 µM (inactive)
- GI50 (DLD-1): > 100 µM (inactive)

SMILES: COc1cc(/C=C\c2ccc(Cl)cc2)cc(OC)c1OC
- GI50 (XF498): 0.274 µM (active)
- GI50 (M19-MEL): 0.389 µM (active)
- GI50 (KM-20L2): 0.105 µM (active)
- GI50 (DMS-114): 0.394 µM (active)
- GI50 (DMS-273): 0.149 µM (active)
- GI50 (HOP-18): > 100 µM (inactive)
- GI50 (LXFL 529): 0.292 µM (active)
- GI50 (DLD-1): 0.319 µM (active)
- GI50 (RXF 631): 0.118 µM (active)

SMILES: O=c1oc2c(O)c(O)cc3c(=O)oc4c(O)c(O)cc1c4c23 [ELLAGIC ACID]
- GI50 (XF498): 35.2 µM (inactive)
- GI50 (M19-MEL): > 10 µM (inactive)
- GI50 (KM-20L2): 94.4 µM (inactive)
- GI50 (DMS-114): 33.4 µM (inactive)
- GI50 (DMS-273): > 10 µM (inactive)
- GI50 (HOP-18): > 10 µM (inactive)
- GI50 (LXFL 529): 37 µM (inactive)
- GI50 (DLD-1): > 10 µM (inactive)
- GI50 (RXF 631): > 10 µM (inactive)

Reference: ChEMBL document CHEMBL1201862, “PubChem BioAssay data set” (2004)
